Assay results taken from PMC10033419, “Blocking NS3–NS4B interaction inhibits dengue virus in non-human primates” (Nature, 2023).
Several values for one entry are separate records, joined by “and”; a condition that tells them apart may be missing. Equal entries are not always repeated. Where two headings read alike, the source gives them in different places.

Assays:
DENV-2/16681 = assay: NHP DENV-2 study, NS1 ELISA in serum; set-up: species or system rhesus macaques (M. mulatta); conditions: rhesus monkey, in vivo
[1] = format: in vivo, rhesus macaques
Excerpt: WRAIR is fully accredited by AAALAC International.

in vitro [2] = conditions: dog
[3] = test system: subgenomic DENV-2/16681 reporter replicon (WT or NS4B mutants); assay: microbe, parasite or virus in culture; format: cell-based; conditions: for FC: fold change of EC50 vs WT
[4] = set-up: method as in earlier work; conditions: healthy volunteers ref 4; cited from earlier work
DENV-2/16681/eGFP = assay: microbe, parasite or virus in culture; format: cell-based; conditions: Dengue virus
in vitro [5] = conditions: African green monkey
ZIKV H/PF/2013 = assay: microbe, parasite or virus in culture; format: cell-based; conditions: Zika virus, Vero C1008
DENV-4 G3 Thailand = assay: DENV genotype panel RT-qPCR, Vero E6; format: cell-based; conditions: Dengue virus, DENV4, Vero C1008
Description: (§1) A total of 20 DENV strains, representing the available genotypes within the four DENV serotypes, were used in the in vitro genotype panel, from which 19 viruses were described previously in ref. [3] and one additional virus, DENV-1/45AZ5 (ref. [54]), was added.
(§2) A potential toxic effect on host cells was tested in parallel, while omitting virus infection, using the MTS/PMS method (Promega) for Vero cells, or by high-content imaging for C6/36 cells, as described previously. […] RT–qPCR data were analysed using the QuantStudio 12K Flex software (v.1.2.3) or SDS v.1.2 Applied Biosystems software. Inhibition values for antiviral molecules were plotted using KaleidaGraph plotting software (v.4.03, Synergy Software).

DENV-3 G3 Bolivia = assay: DENV genotype panel RT-qPCR, Vero E6; format: cell-based; conditions: Dengue virus, DENV3, Vero C1008
Description: as §1, §2

DENV-2 Sylvatic Malaysia = assay: DENV genotype panel RT-qPCR, Vero E6; format: cell-based; conditions: Dengue virus, DENV2, Vero C1008
Description: as §1, §2

DENV-1 G4 Indonesia = assay: DENV genotype panel RT-qPCR, Vero E6; format: cell-based; conditions: Dengue virus, DENV1, Vero C1008
Description: as §1, §2

DENV-3 G2 Thailand = assay: DENV genotype panel RT-qPCR, Vero E6; format: cell-based; conditions: Dengue virus, DENV3, Vero C1008
Description: as §1, §2

DENV-1 G1 Djibouti = assay: DENV genotype panel RT-qPCR, Vero E6; format: cell-based; conditions: Dengue virus, DENV1, Vero C1008; mean ± SD
Description: as §1, §2

[6] = test system: DENV-1 G5 France - Toulon; assay: DENV genotype panel RT-qPCR, Vero E6; format: cell-based; conditions: Dengue virus, DENV1, Vero C1008
Description: as §1, §2

DENV-4 G2b Brazil = assay: DENV genotype panel RT-qPCR, Vero E6; format: cell-based; conditions: Dengue virus, DENV4, Vero C1008
Description: as §1, §2

DENV-4 G2a Malaysia = assay: DENV genotype panel RT-qPCR, Vero E6; format: cell-based; conditions: Dengue virus, DENV4, Vero C1008
Description: as §1, §2

DENV-4 Sylvatic Malaysia = assay: DENV genotype panel RT-qPCR, Vero E6; format: cell-based; conditions: Dengue virus, DENV4, Vero C1008
Description: as §1, §2

DENV-2 American Trinidad = assay: DENV genotype panel RT-qPCR, Vero E6; format: cell-based; conditions: Dengue virus, DENV2, Vero C1008
Description: as §1, §2

DENV-3 G1 Malaysia = assay: DENV genotype panel RT-qPCR, Vero E6; format: cell-based; conditions: Dengue virus, DENV3, Vero C1008
Description: as §1, §2

VACV Western reserve 56 = assay: microbe, parasite or virus in culture; format: cell-based; conditions: Orthopoxvirus vaccinia, Vero C1008; VeroE6
RSV rgRSV224 = assay: microbe, parasite or virus in culture; format: cell-based; conditions: human respiratory syncytial virus, HeLa
C6/36 cells = assay: Toxicity by high-content imaging; format: cell-based, Aedes albopictus; conditions: C3/36 cells; read-out: CC50, individual values
Description: as §2

[7] = Toxicity by high-content imaging; format: cell-based, Aedes albopictus; conditions: Aedes albopictus, C6/36 cells
Description: as §2

[8] = test system: DENV-2 Asian II Papua New Guinea; assay: microbe, parasite or virus in culture; format: cell-based; conditions: Dengue virus, DENV2, Vero C1008
Description: as §1, §2

DENV-4 G1 India = assay: microbe, parasite or virus in culture; format: cell-based; conditions: Dengue virus, DENV4, Vero C1008
Description: as §1, §2

[9] = test system: DENV-2 Cosmopolitan France - Toulon; assay: microbe, parasite or virus in culture; format: cell-based; conditions: Dengue virus, DENV2, Vero C1008
Description: as §1, §2

DENV-1 G3 Malaysia = format: cell-based; conditions: T108I in NS4B
[10] = one of three values below threshold
[11] = two of three values below threshold

COc1cc(N[C@H](C(=O)c2c[nH]c3ccc(OC(F)(F)F)cc23)c2ccc(Cl)cc2OC)cc(S(C)(=O)=O)c1 [JNJ-1802]
NS1 protein in serum (DENV-2/16681): positive NS1 signal
Weight change (%) ([1]; Day 1, individual animals): -0.3571% and -0.3226%
Weight change (%) ([1]; Day 3, individual animals): -0.3571%
Weight change (%) ([1]; Day 5, individual animals): 0.3226%
Weight change (%) ([1]; Day 8, individual animals): 1.143%
Weight change (%) ([1]; Day 9, individual animals): -1.29%
Weight change (%) ([1]; Day 10, individual animals): 0.3226%
Weight change (%) ([1]; Day 29, individual animals): 1.711%
Weight change (%) ([1]; Day -2, individual animals): -0.3571% and 0.3226%
CC90 (in vitro [2]): 5380 nM
CC50 (in vitro [2]; CC50): 2600 nM
CC50 (in vitro [2]; CC50, Mean): 2630 nM
EC50 ([3]; Dengue virus, DENV2, NS4B L94F_V91A_T108I replicon SDM210002): 2380 nM
EC50 ([3]; NS4B A222S replicon SDM200008, read-out: EC50): 0.35 nM
EC50 ([3]; NS4B F237Y replicon SDM140022, Huh7 transient, listed as 64281802-AAA, read-out: EC50): 7.9 nM and 11 nM and 9.2 nM
EC50 ([3]; NS4B L94F_V91A_T108I replicon SDM210002, listed as 64281802-AAA): 2350 nM and 2290 nM
EC50 ([3]; NS4B V91A replicon SDM140014, Huh7 transient, listed as 64281802-AAA, read-out: EC50): 40 nM and 47 nM and 58 nM and 50 nM
EC50 ([3]; NS4B V219A replicon SDM200007, listed as 64281802-AAA, read-out: EC50): 0.6 nM and 0.52 nM and 0.63 nM and 0.92 nM and 0.78 nM
EC50 ([3]; WT replicon pFK-sgDVs-R2A-SDM120005, Huh7 transient): 0.33 nM
FC ([3]; NS4B A222S, listed as 64281802-AAA): 1.1 and 1.2 and 0.9 and 1.3 and 1.4
FC ([3]; NS4B F237Y, listed as 64281802-AAA): 46.0 and 32.0 and 23.0
FC ([3]; NS4B L94F_V91A_T108I, listed as 64281802-AAA): 3872.3 and 4594.9 and 4248.1
FC ([3]; NS4B M183T, listed as 64281802-AAA): 1.1 and 1.2 and 1.6 and 1.4
FC ([3]; NS4B S85L, listed as 64281802-AAA): 3.1 and 3.4 and 3.6 and 4.3 and 4.0
FC ([3]; NS4B T195A, listed as 64281802-AAA): 2.9 and 3.2 and 2.4 and 3.7 and 3.5
FC ([3]; NS4B V91A, listed as 64281802-AAA): 232.0 and 190.0 and 127.0 and 176.0
FC ([3]; NS4B V219A, listed as 64281802-AAA): 1.8 and 1.9 and 1.5 and 1.4
safety and tolerability in humans [4]: safe and well tolerated
EC90 (DENV-2/16681/eGFP; DENV2, Huh-7, Huh-7, read-out: EC90): 0.53 ± 0.31 nM
EC90 (DENV-2/16681/eGFP; DENV2, Huh-7, read-out: EC90 Mean): 0.533 nM
CC50 (in vitro [5]): 16000 nM
EC50 (ZIKV H/PF/2013): 1100 nM
EC50 (DENV-4 G3 Thailand): 45 nM
EC90 (DENV-4 G3 Thailand): 46 ± 12 nM
EC50 (DENV-3 G3 Bolivia): 0.9 ± 1.1 nM
EC90 (DENV-3 G3 Bolivia): 6.71 ± 0.66 nM
EC50 (DENV-2 Sylvatic Malaysia): 0.0634 ± 0.0022 nM
EC90 (DENV-2 Sylvatic Malaysia): 0.265 ± 0.029 nM
EC90 (DENV-1 G4 Indonesia): 0.8 ± 0.31 nM
EC50 (DENV-1 G4 Indonesia; two of four values below threshold): < 0.19 nM
EC50 (DENV-3 G2 Thailand): 1.68 ± 0.24 nM
EC90 (DENV-3 G2 Thailand): 5.8 ± 3 nM
EC50 (DENV-1 G1 Djibouti): 0.207 ± 0.056 nM
EC90 (DENV-1 G1 Djibouti): 0.83 ± 0.37 nM
EC90 [6]: 1.02 ± 0.68 nM
EC50 [6, 10]: < 0.23 nM
EC50 (DENV-4 G2b Brazil): 0.521 ± 0.08 nM
EC90 (DENV-4 G2b Brazil): 1.54 ± 0.15 nM
EC50 (DENV-4 G2a Malaysia): 0.82 ± 0.71 nM
EC90 (DENV-4 G2a Malaysia): 2.1 ± 1.7 nM
EC50 (DENV-4 Sylvatic Malaysia): 0.66 ± 0.42 nM
EC90 (DENV-4 Sylvatic Malaysia): 1.6 ± 1.1 nM
EC50 (DENV-2 American Trinidad): 0.063 ± 0.081 nM
EC90 (DENV-2 American Trinidad): 0.162 ± 0.083 nM
EC50 (DENV-3 G1 Malaysia): 1.28 ± 0.46 nM
EC90 (DENV-3 G1 Malaysia): 3.6 ± 1.9 nM
EC50 (VACV Western reserve 56): 8900 nM
EC50 (RSV rgRSV224; read-out: EC50, Mean): 3180 nM
EC90 (RSV rgRSV224; read-out: EC90, Mean): 5460 nM
CC50 (C6/36 cells): 15200 nM
CC50 ([7]; C3/36 cells, mean, read-out: CC50 Mean): 14400 nM
CC50 ([7]; C3/36 cells, read-out: CC50, individual values): 13700 nM
CC50 ([7]; C6/36, read-out: CC50): 14400 ± 1100 nM
EC90 [8]: 0.19 ± 0.1 nM
EC50 ([8]; two of two values below threshold): < 0.04 nM
EC90 (DENV-4 G1 India): 0.762 ± 0.095 nM
EC50 (DENV-4 G1 India; [11]): < 0.09 nM
EC90 [9, 10]: 0.28 nM
EC50 [9, 11]: < 0.0443 nM
EC90 (DENV-1 G3 Malaysia): 3.04 ± 0.69 nM
